According to patent publication US9926275B2 (priority 2013, dated 2018):
Like-named read-outs stand apart in the source and are kept apart here.

Legend:
rats [1] = assay: Light Dark Emergence (LDE) Test of anxiety; assay type: in vivo; settings: 5 or 10 mg/kg, p>0.05
Protocol: (§1) GAT358 was assessed in two different behavioral tests, the Taste Reactivity (TR) Test and the Light Dark Emergence (LDE) Test. The TR Test is used to assess the possibility of a drug inducing nausea in rats as measured by conditioned gaping to infusion of a 0.01% saccharin solution previously paired with drug administration.
GAT358 was dissolved in a mixture of 4% DMSO, 1% Tween80, 1% Cremophor and 94% Saline (for doses of 5, 10 and 20 mg/kg) and injected at a volume of 3 ml/kg. Assessed was the vehicle (“Veh”), 10 and 20 mg/kg doses of GAT358 in the conditioned gaping model of nausea where rats are infused for 2 min with novel 0.01% saccharin followed immediately by an injection of the appropriate drug dose [Vehicle (n=6), GAT358-10 (n=8) and GAT358-20 (n=8)]. Seventy two hours following conditioning the rats were infused for 2 min with 0.01% saccharin during the drug free TR Test while their orofacial responses were videotaped for subsequent scoring. Further assessed was the Veh, 5 and 10 mg/kg of GAT358 in the LDE test [Veh (n=6), GAT358-5 (n=8) and GAT358-10 (n=8)]. […] The activity of the rat while in the LDE test for 5 min was tracked by Ethovision (Noldus Information Technology) and subsequently the duration of time spent in the open field and activity (distance travelled (cm)/amount of time(sec)) was analyzed. […]

CB1 receptor [2] = molecular target: T1, CB1 receptor (Homo sapiens, UniProt P21554); assay: β-arrestin recruitment in CNR1 PathHunter cell line, allosteric modulation of CP55,940 response; assay type: cell-based; settings: Table 1, CP55,940 as agonist
T1 sequence (P21554 whole entry): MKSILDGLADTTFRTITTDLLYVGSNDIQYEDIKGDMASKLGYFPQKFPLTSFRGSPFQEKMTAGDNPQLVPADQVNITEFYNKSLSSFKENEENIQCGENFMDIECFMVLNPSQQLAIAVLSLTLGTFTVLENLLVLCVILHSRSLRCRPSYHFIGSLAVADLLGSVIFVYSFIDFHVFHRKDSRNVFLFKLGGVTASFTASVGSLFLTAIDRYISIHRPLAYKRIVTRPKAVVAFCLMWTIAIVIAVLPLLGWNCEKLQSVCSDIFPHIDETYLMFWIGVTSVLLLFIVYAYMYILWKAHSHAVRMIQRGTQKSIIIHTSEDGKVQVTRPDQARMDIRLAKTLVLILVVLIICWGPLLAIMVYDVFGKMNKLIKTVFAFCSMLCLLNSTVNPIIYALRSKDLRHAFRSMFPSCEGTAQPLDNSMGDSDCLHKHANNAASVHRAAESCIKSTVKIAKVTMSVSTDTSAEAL

rats [3] = assay type: in vivo
Protocol: as §1
GAT358 was dissolved in a mixture of 4% DMSO, 1% Tween80, 1% Cremophor and 94% Saline (for doses of 5, 10 and 20 mg/kg) and injected at a volume of 3 ml/kg. Assessed was the vehicle (“Veh”), 10 and 20 mg/kg doses of GAT358 in the conditioned gaping model of nausea where rats are infused for 2 min with novel 0.01% saccharin followed immediately by an injection of the appropriate drug dose [Vehicle (n=6), GAT358-10 (n=8) and GAT358-20 (n=8)]. Seventy two hours following conditioning the rats were infused for 2 min with 0.01% saccharin during the drug free TR Test while their orofacial responses were videotaped for subsequent scoring. Further assessed was the Veh, 5 and 10 mg/kg of GAT358 in the LDE test [Veh (n=6), GAT358-5 (n=8) and GAT358-10 (n=8)]. Group assignment was counterbalanced based upon previous drug experience. The rats were administered the appropriate drug dose 45 min prior to being placed in the enclosed dark chamber that allowed access to an open field area where the lighting was 100 lux. The activity of the rat while in the LDE test for 5 min was tracked by Ethovision (Noldus Information Technology) and subsequently the duration of time spent in the open field and activity (distance travelled (cm)/amount of time(sec)) was analyzed.
Results (all analyses were conducted using a one way ANOVA): […]

CB1 receptor [4] = molecular target: T1, CB1 receptor; assay: DiscoveRx HitHunter cAMP XS+ assay in cAMP Hunter cell line, allosteric modulation of CP55,940 response; assay type: cell-based; settings: Table 1, preincubation with compound, then CP55,940 challenge, 20 μM forskolin

## O=c1c(Nc2ccc(Cl)cc2)c(Nc2cccc(-c3cccc(N4CCCC4)n3)c2)c1=O [Compound 38, 3-((4-Chlorophenyl)amino)-4-((3-(6-(pyrrolidin-1-yl)pyridin-2-yl)phenyl)amino)cyclobut-3-ene-1,2-dione]
Rats [1]; 45 min before 5 min LDE test
  time spent in the open field: did not significantly alter the time spent in the open field
Rats [1]; 45 min before test
  activity of rats during the 5 min in the LDE test: did not significantly alter
CB1 receptor [2]
  β-arrestin % inhibition: 107%
CB1 receptor [2]; read-out: β-arrestin EC50
  EC50: 111 nM
Rats [3]; 10 mg/kg, Bonferroni p=0.006
  total activity of rats during the drug-free test with saccharin vs vehicle: significantly lower than the rats in the vehicle group
Rats [3]; 20 mg/kg, Bonferroni p=0.012
  total activity of rats during the drug-free test with saccharin vs vehicle: significantly lower than the rats in the vehicle group
Rats [3]; 10 and 20 mg/kg, drug-free TR test 72 h after conditioning, 2 min saccharin infusion, p>0.05
  conditioned gaping responses vs vehicle: did not result in the expression of conditioned gaping or total aversive responses that differed significantly from the vehicle group
Rats [3]; 10 and 20 mg/kg, drug-free TR test 72 h after conditioning, p>0.05
  total aversive responses (gaping, chin rubs and paw treads) vs vehicle: did not result in the expression of conditioned gaping or total aversive responses that differed significantly from the vehicle group
Rats [3]; 10 and 20 mg/kg, drug-free TR test, p>0.05
  conditional ingestive responding to saccharin infusion: did not alter conditional ingestive responding to saccharin infusion
CB1 receptor [4]
  cAMP % inhibition: 16%
CB1 receptor [4]; read-out: cAMP EC50
  EC50: > 10000 nM
